ChEMBL document CHEMBL1158928, “Antitumor agents, 118. The isolation and characterization of bruceanic acid A, its methyl ester, and the new bruceanic acids B, C, and D, from Brucea antidysenterica” (1990)
≈ marks a conversion by molar mass, not a printed value. Calls of active or inactive are those of the source. No cut-off for these calls is given here.

Experiments:
TE-671 [1] = assay: Cytotoxicity against human TE671 cells at 10 ug/ml; assay type: functional, cell-based
KB [2] = assay: Cytotoxicity against human KB cells at 10 ug/ml; assay type: functional, cell-based
HCT-8 [3] = assay: Cytotoxicity against human HCT8 cells at 10 ug/ml; assay type: functional, cell-based
P388 [4] = assay: Cytotoxicity against mouse P388 cells at 10 ug/ml; assay type: functional, cell-based
A549 [5] = assay: Cytotoxicity against human A549 cells at 10 ug/ml; assay type: functional, cell-based
A549 [6] = assay: Cytotoxicity against human A549 cells; assay type: functional; conditions: read-out: ED50 (the source's name)
P388 [7] = assay: Cytotoxicity against mouse P388 cells; assay type: functional; conditions: read-out: ED50 (the source's name)
HCT-8 [8] = assay: Cytotoxicity against human HCT8 cells; assay type: functional; conditions: read-out: ED50 (the source's name)
TE-671 [9] = assay: Cytotoxicity against human TE671 cells; assay type: functional; conditions: read-out: ED50 (the source's name)
KB [10] = assay: Cytotoxicity against human KB cells; assay type: functional; conditions: read-out: ED50 (the source's name)

Row | SMILES | Activity (TE-671 [1]) | Activity (KB [2]) | Activity (HCT-8 [3]) | Activity (P388 [4]) | Activity (A549 [5]) | EC50 (A549 [6]) | EC50 (P388 [7]) | EC50 (HCT-8 [8]) | EC50 (TE-671 [9]) | EC50 (KB [10])
1 | COC(=O)[C@@]12OC[C@]34[C@H](CC(=O)[C@H](OC(=O)c5ccccc5)[C@@H]13)C[C@@H](C(C)=O)[C@](C)(CC(=O)O)[C@H]4[C@@H](O)[C@@H]2O | inactive | inactive | inactive | inactive | inactive |  |  |  |  | 
2 | COC(=O)[C@@]12OC[C@]34[C@H](CC(=O)[C@H](OC(=O)/C=C(\C)C(C)(C)OC(C)=O)[C@@H]13)C[C@@H](C(C)=O)[C@](C)(CC(=O)O)[C@H]4[C@@H](O)[C@@H]2O | inactive | inactive | inactive | inactive | inactive |  |  |  |  | 
3 | COC(=O)[C@@]12OC[C@]34[C@H](CC(=O)[C@H](OC(=O)/C=C(\C)C(C)(C)O)[C@@H]13)C[C@@H](C(C)=O)[C@](C)(CC(=O)O)[C@H]4[C@@H](O)[C@@H]2O [BRUCEANIC ACID D] |  |  |  |  |  | 10 µg/mL (≈ 17.6 µM) | 0.77 µg/mL (≈ 1.36 µM) | 10 µg/mL (≈ 17.6 µM) |  | 
4 | COC(=O)[C@@]12OC[C@]34[C@H](CC(=O)[C@H](OC(=O)/C=C(\C)C(C)C)[C@@H]13)C[C@@H](C(C)=O)[C@](C)(CC(=O)O)[C@H]4[C@@H](O)[C@@H]2O [BRUCEANIC ACID A] |  |  |  |  |  | 10 µg/mL (≈ 18.2 µM) |  | 10 µg/mL (≈ 18.2 µM) | 5.5 µg/mL (≈ 9.99 µM) | 4.16 µg/mL (≈ 7.56 µM)
5 | COC(=O)C[C@]1(C)[C@H]2[C@@H](O)[C@H](O)[C@]3(C(=O)OC)OC[C@@]24[C@H](CC(=O)[C@H](OC(=O)/C=C(\C)C(C)C)[C@@H]34)C[C@H]1C(C)=O | inactive | inactive | inactive | inactive | inactive |  |  |  |  | 
